According to paper PMC4807281 (The Journal of Biological Chemistry, 2016):

Experiments:
[1] = biological target: T1, DnaK (Escherichia coli, UniProt P0A6Y8); experiment: Peptide binding assay (fluorescence polarization), control/deglutathionylated DnaK; design: species or system E. coli; settings: ADP state; FP
T1 construct: His6-Smt3 (N, cleaved yes); made in house; host or cells: E. coli BL21(DE3)
Method: FP values are expressed in millipolarization units. All statistical analyses were performed with Origin 8 software.
FIGURE 6.

[2] = test system: Hsp72; design: method as in PMID 15540944; settings: modification at Cys-267; ref [62]; cited from earlier work
[3] = biological target: T1, DnaK; design: species or system E. coli; settings: 1 mM ADP/ATP/NRLLLTG peptide, 1 h room temperature before DTNB; mean of three
Method: A standard curve was obtained using 0–100 μM free cysteine. […] The number of active cysteine residues can be calculated by dividing the concentration of free thiols in the protein by the concentration of protein.
FIGURE 1. […] The N-terminal NBD and its subdomains IA, IB, IIA, and IIB and the C-terminal SBD are indicated. […] The number of free thiols was calculated from the absorbance at 412 nm using a standard curve.

[4] = biological target: T1, DnaK; design: species or system E. coli; settings: 0.5 mM ATP or ADP premixed 30 min with DnaK T199A; GSH and diamide
Method: To deglutathionylate the protein, 10 mM DTT was added to the reaction mixture. GSH, diamide, and/or DTT was removed by dialysis.
(§1) Cooled protein was mixed with the dye and incubated in the dark at room temperature for at least 30 min. SDS-PAGE was performed to separate protein and surplus dye. Fluorescence of Alexa Fluor 350 dye was observed using excitation at 254 nm with a UV lamp.
(§2) FIGURE 3. […] Unmodified cysteine residues for untreated control, glutathionylated, and deglutathionylated samples were labeled with fluorescent dye.

[5] = biological target: T2, glutathionylated DnaK (Escherichia coli, UniProt P0A6Y8); experiment: Deglutathionylation of glutathionylated DnaK by Grx3/GSH; design: species or system E. coli; settings: 10 μM glutathionylated DnaK, 30 min, 37 °C, […] Grx3 with 20 μM GSH
T2 construct: His6-Smt3 (N, cleaved yes); made in house; host or cells: E. coli BL21(DE3)
Method: […] GSH, diamide, and/or DTT was removed by dialysis.
as §1, §2

[6] = test system: Ssa1; design: method as in PMID 8939938, PMID 9753476, PMID 10462452; settings: absence of nucleotide; ref [56], [60], [61]; cited from earlier work
[7] = test system: heat-induced luciferase aggregation; design: method as in PMID 15109915; settings: ref [68]; cited from earlier work

T1 sequence (P0A6Y8 2-638): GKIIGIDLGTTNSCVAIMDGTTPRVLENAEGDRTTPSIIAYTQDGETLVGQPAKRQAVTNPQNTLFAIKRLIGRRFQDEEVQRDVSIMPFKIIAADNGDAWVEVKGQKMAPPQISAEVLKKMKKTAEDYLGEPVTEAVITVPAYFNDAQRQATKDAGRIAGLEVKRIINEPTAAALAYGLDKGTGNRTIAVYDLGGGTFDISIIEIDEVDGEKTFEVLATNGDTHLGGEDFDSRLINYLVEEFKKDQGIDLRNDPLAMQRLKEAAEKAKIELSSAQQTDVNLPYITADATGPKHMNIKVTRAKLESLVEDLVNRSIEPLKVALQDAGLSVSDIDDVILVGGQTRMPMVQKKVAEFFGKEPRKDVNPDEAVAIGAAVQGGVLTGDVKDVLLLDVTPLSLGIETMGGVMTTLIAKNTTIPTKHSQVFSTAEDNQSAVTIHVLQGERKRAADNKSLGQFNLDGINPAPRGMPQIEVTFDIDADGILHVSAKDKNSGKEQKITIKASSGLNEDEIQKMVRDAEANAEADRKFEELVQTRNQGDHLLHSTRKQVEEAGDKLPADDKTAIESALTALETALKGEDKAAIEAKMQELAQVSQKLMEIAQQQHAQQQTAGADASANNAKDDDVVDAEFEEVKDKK
T2 sequence (P0A6Y8 2-638): as above

CC(C)C[C@H](NC(=O)[C@H](C)NC(=S)Nc1ccc2c(c1)C(=O)OC21c2ccc(O)cc2Oc2cc(O)ccc21)C(=O)N[C@@H](CC(C)C)C(=O)N[C@@H](CC(C)C)C(=O)N[C@@H](CO)C(=O)N[C@@H](C)C(=O)N1CCC[C@H]1C(=O)N[C@@H](CCCNC(=N)N)C(=O)N[C@@H](CCCNC(=N)N)C(=O)O
effect of ADP binding to DnaK on binding affinity of peptide [1]: did not obviously alter the binding affinity of peptide

CCCCCC(O)C=CC=O (stereo not drawn) [4-Hydroxy-2-nonenal]
effect on protein refoldase activity of Hsp72 [2]: inhibits its protein refoldase activity

Nc1ncnc2c1ncn2[C@@H]1O[C@H](COP(=O)(O)OP(=O)(O)O)[C@@H](O)[C@H]1O [ADP]
effect on cysteine reactivity of DnaK [3]: inhibited cysteine reactivity of DnaK to different degrees | effect on glutathionylation of DnaK [4]: no glutathionylation of DnaK occurred

Nc1ncnc2c1ncn2[C@@H]1O[C@H](COP(=O)(O)OP(=O)(O)OP(=O)(O)O)[C@@H](O)[C@H]1O [ATP]
effect on cysteine reactivity of DnaK [3]: inhibited cysteine reactivity of DnaK to different degrees | effect on glutathionylation of DnaK [4]: no glutathionylation of DnaK occurred

N[C@@H](CCC(=O)N[C@@H](CS)C(=O)NCC(=O)O)C(=O)O [GSH]
deglutathionylation of DnaK [5]: worked synergistically to cause deglutathionylation of DnaK

CCN1C(=O)C=CC1=O [N-ethylmaleimide]
effect of modification on Ssa1 [6]: reduces transmembrane transport as well as the ATPase and luciferase refolding activities of Ssa1

Hsc70: Hsp70 family member whose glutathionylation is cited
effect of glutathionylation of Hsc70 [7]: enhance inhibition of heat-induced luciferase aggregation
